Earlier results on four compounds are cited in US20020048596A1, “PREPARATION FOR THE TRANSPORT OF AN ACTIVE SUBSTANCE ACROSS BARRIERS” (priority 1999, published 2002).

Read-outs that look alike come from different tables or passages of the source.

`CCCCCCCCCC(=O)OC[C@H](COP(=O)([O-])OCC[N+](C)(C)C)OC(=O)CCCCCCCCC` [didecanoyl phosphatidyl choline]: the CMC result (unit not given) is recorded as “CMC ∞ 10^−6”.

For `CC(C)Cc1ccc(C(C)C(=O)O)cc1` (stereo not shown) [ibuprofen, reference compound], the solubility entry was “ibuprofen, solubility ≦ 5 × 10^−5M”.

Turning to “distearoyl glycerophosphoethanolamine triazopolyethylene glycol (5000)”, the CMC entry (in water / suspension medium) is given as “CMC = 10^−5M”. As for distearoyl phosphomaltobionamide, the CMC result (in water / suspension medium) is “CMC = 10^−5 M”.
